This note sets out measurements from patent US20260226493A1, “HERBICIDE RESISTANT PLANTS” (SYNGENTA CROP PROTECTION AG, priority 2023, published 2026).

Holding throughout (assay type): biochemical
For one assay, the target named is T1, Arabidopsis BioDAΔMTP (Arabidopsis thaliana, UniProt B0F481).
T1 construct: with the predicted N-terminal mitochondrial transit peptide removed; 6xHis-tag (N); thrombin cleavage site (N); made in house; host or cells: E. coli BL21 (DE3) bioA
T1 sequence (B0F481 with tags, fused parts or gaps): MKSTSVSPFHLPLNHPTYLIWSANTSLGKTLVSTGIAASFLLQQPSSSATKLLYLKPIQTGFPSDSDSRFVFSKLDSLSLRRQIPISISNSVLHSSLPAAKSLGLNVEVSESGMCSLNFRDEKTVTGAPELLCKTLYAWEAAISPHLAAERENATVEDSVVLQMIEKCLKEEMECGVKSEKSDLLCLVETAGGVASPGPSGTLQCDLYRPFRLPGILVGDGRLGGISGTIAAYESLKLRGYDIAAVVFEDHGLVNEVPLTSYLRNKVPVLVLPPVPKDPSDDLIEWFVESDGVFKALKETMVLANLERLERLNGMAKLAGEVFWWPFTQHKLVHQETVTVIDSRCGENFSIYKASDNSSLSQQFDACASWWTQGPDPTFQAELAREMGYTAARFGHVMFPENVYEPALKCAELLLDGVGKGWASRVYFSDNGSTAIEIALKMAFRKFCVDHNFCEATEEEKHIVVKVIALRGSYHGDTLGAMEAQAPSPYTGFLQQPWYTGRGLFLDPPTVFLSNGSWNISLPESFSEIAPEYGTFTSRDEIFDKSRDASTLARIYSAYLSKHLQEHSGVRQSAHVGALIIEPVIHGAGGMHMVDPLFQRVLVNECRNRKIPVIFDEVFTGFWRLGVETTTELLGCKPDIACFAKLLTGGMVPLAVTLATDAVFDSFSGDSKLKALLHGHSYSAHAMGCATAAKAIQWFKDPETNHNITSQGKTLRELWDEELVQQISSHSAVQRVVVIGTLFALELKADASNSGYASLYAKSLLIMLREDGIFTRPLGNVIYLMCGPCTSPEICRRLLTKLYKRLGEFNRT
As to the kind of experiment: BioDA enzyme activity with DMSO or herbicide in vitro (wild-type reference enzyme). Conditions: for % Inhibition relative to DMSO treatment: Arabidopsis BioDAΔMTP (Table 26).

The target of assay [1] is T2, Arabidopsis thaliana BIO3-BIO1 (BioDA) mutants (Arabidopsis thaliana, UniProt B0F481, S704H).
T2 construct: with the predicted N-terminal mitochondrial transit peptide removed; 6xHis-tag (N); thrombin cleavage site (N); made in house; host or cells: E. coli BL21 (DE3) bioA
Put plainly: BIO3-BIO1 mutant enzyme activity in the presence of herbicide, percentage inhibition (fluorometric DAPA assay). Conditions: read-out: percentage inhibition. An excerpt:
(§1) A pet-24 plasmid containing a DNA sequence encoding each identified variant mutant of BIO3-BIO1 derived from Arabidopsis thaliana from example 5 above, as shown in Table 13 below and as shown in full in SEQ ID NOs: 15 to 155, codon-optimised for expression in E. coli, with an N-terminal 6×His-tag and thrombin cleavage site and under control of a T7 promoter, and was synthesised by Twist Bioscience, in a similar manner to SEQ ID NO:311. These plasmids were then expressed in E. coli BL21 (DE3) bioA with 50 μg/mL kanamycin and 25 μg/mL chloramphenicol selection. Overnight cultures grown at 37° C. were used to inoculate 8×500 mL AIM in shake flasks at a ratio of 1:100. Cultures were grown at 37° C., 200 rpm for 3.5 hours and then overnight at 20° C. Cells were harvested by centrifugation for 30 minutes at 10 000 g. Cells were stored at −80° C. until extraction. 30 g of cell pellet from was thawed in 120 mL of IMAC buffer A (20 mM HEPES pH7.5, 25 mM imidazole, 500 mM sodium chloride, 0.15 mM pyridoxal phosphate, 0.5 mM TCEP, 1× complete Protease Inhibitor Tablet (Roche)). The resuspension was passed through a cell disrupter at 18 000 PSI and centrifuged at 50 000 g for 25 minutes at 4° C. The His-tagged BIO3-BIO1 protein was purified from the extract supernatant on an AKTA avant chromatography system (Cytiva) using a HisTrap FF column and eluted in IMAC buffer B ((20 mM HEPES pH7.5, 500 mM imidazole, 500 mM sodium chloride, 0.15 mM pyridoxal phosphate, 0.5 mM TCEP) followed by SEC using a HiLoad 26/60 Superdex200 column in SEC buffer (25 mM HEPES pH7.5, 150 mM sodium chloride, 0.15 mM pyridoxal phosphate, 0.5 mM TCEP). Protein concentration was measured and calculated using the absorbance at 280 nm. Extracts were diluted 1 in 4 and 10 uL was analysed by SDS PAGE.
(§2) To measure BIO3-BIO1 mutant enzyme activity in the presence of herbicide, herbicides were incubated with 20 μL of enzyme mix (100 mM EPPS pH 8.6, 0.1 mM pyridoxal phosphate, 0.1 mg/mL BSA, 50 nM BIO3-BIO1 enzyme) for 10 minutes at 20° C. in a well of a 96-well half-area black plate, followed by the addition of 20 μL of substrate mix (final concentration of 100 mM EPPS pH 8.6, 0.1 mM pyridoxal phosphate, 0.1 mg/mL BSA, 100 μM spermidine, 20 μM KAPA, 100 mM NaCO3) and further incubation for 75 minutes at 20° C. The reaction was terminated by the addition of 50 μL of derivatisation mix (final concentration of 250 mM borate NaOH pH 9.4, 3.6 mM o-phthalaldehyde, 7 mM β-mercaptoethanol, 17% (v/v) ethanol, 3.6% (v/v) methanol). The fluorescent product produced by the reaction of DAPA with o-phthalaldehyde and 7 mM β-mercaptoethanol was measured at 470 nm after excitation at 410 nm. The percentage inhibition was calculated as the activity in the presence of one of three concentrations of each herbicide compound A to M (note that the compounds labelled as A to M are identified hereinabove in the relevant section of the description) as a percentage of the activity in DMSO (Table 12 and 13). The percentage activity versus WT was also calculated and is shown in Table 13 and 14 (NT indicates mutation not tested in table 13, note that these mutations are tested at different compound concentrations for compounds L, M and C, and the results are shown in table 14).

The target in assay [2] is T3, Arabidopsis thaliana BIO3-BIO1 (BioDA) mutants (Arabidopsis thaliana, UniProt B0F481, Y511F).
T3 construct: with the predicted N-terminal mitochondrial transit peptide removed; 6xHis-tag (N); thrombin cleavage site (N); made in house; host or cells: E. coli BL21 (DE3) bioA
The assay is described as above. The conditions noted are these: read-out: percentage inhibition.
Source text: as §1, §2

The target of assay [3] is T4, Arabidopsis thaliana BIO3-BIO1 (BioDA) mutants (Arabidopsis thaliana, UniProt B0F481, T512Q).
T4 construct: with the predicted N-terminal mitochondrial transit peptide removed; 6xHis-tag (N); thrombin cleavage site (N); made in house; host or cells: E. coli BL21 (DE3) bioA
Described as above. The conditions noted are these: read-out: percentage inhibition.
Source text: as §1, §2

For assay [4], the target named is T5, Arabidopsis thaliana BIO3-BIO1 (BioDA) mutants (Arabidopsis thaliana, UniProt B0F481, A609Y).
T5 construct: with the predicted N-terminal mitochondrial transit peptide removed; 6xHis-tag (N); thrombin cleavage site (N); made in house; host or cells: E. coli BL21 (DE3) bioA
Described as above. Conditions: read-out: percentage inhibition.
Source text: as §1, §2

For assay [5], the target named is T6, Arabidopsis thaliana BIO3-BIO1 (BioDA) mutants (Arabidopsis thaliana, UniProt B0F481, G608E).
T6 construct: with the predicted N-terminal mitochondrial transit peptide removed; 6xHis-tag (N); thrombin cleavage site (N); made in house; host or cells: E. coli BL21 (DE3) bioA
The description is as above. The conditions noted are these: read-out: percentage inhibition.
Source text: as §1, §2

[6] abbreviates: Arabidopsis (SEQ ID NO 294), spermidine in substrate mix, read-out: % Inhibition relative to DMSO treatment.
The mark [7] stands for this setting: 31 μM, Arabidopsis (SEQ ID NO 294), spermidine in substrate mix, read-out: % Inhibition relative to DMSO treatment.
Setting [8] is: 500 μM, Arabidopsis (SEQ ID NO 294), spermidine in substrate mix, read-out: % Inhibition relative to DMSO treatment.

Molecules are shown by their SMILES.

A word on the inhibition: it is how much of the control response was suppressed.

T6 sequence (B0F481 23-833 G608E): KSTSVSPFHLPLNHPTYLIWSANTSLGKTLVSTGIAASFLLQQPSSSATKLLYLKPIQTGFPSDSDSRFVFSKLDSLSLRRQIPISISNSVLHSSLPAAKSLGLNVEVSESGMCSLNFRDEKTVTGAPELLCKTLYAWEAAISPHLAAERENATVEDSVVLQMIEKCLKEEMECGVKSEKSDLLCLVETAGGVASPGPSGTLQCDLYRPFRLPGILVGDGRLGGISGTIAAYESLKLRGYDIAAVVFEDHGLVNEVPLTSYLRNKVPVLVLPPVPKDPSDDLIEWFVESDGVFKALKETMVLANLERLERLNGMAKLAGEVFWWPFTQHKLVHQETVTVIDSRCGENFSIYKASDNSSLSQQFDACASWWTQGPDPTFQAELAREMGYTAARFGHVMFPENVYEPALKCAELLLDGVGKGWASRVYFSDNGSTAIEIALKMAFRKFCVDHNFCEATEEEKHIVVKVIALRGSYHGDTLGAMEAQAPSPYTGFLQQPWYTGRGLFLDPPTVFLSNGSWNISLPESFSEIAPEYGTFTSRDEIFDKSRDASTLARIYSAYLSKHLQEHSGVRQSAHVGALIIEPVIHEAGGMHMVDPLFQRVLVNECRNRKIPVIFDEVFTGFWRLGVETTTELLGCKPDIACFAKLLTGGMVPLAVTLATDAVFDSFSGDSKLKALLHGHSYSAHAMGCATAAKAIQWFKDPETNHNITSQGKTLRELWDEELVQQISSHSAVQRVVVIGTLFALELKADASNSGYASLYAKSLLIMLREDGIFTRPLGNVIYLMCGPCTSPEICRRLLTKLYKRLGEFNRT
T4 sequence (B0F481 23-833 T512Q): as the sequence (B0F481 23-833 G608E) above, with T490Q, E586G counted along it
T3 sequence (B0F481 23-833 Y511F): as the sequence (B0F481 23-833 G608E) above, with Y489F, E586G counted along it
T2 sequence (B0F481 23-833 S704H): as the sequence (B0F481 23-833 G608E) above, with E586G, S682H counted along it
T5 sequence (B0F481 23-833 A609Y): as the sequence (B0F481 23-833 G608E) above, with E586G, A587Y counted along it

As to `CCn1c(C)c(-c2cc(OC(F)(F)F)ccc2Cl)c(=O)c(C(=O)O)c1-c1ccc(Cl)c(Cl)c1` [Compound D, 5-[2-chloro-5-(trifluoromethoxy)phenyl]-2-(3,4-dichlorophenyl)-1-ethyl-6-methyl-4-oxo-pyridine-3-carboxylic acid], the inhibition at 0.5 µM on Arabidopsis BioDAΔMTP (setting [6]) turned out to be 95%.

Consider `C[C@@H](N)COc1cccc(C(=O)O)n1.Cl.Cl` [Compound E, [(1R)-2-(6-carboxypyridin-1-ium-2-yl)oxy-1-methyl-ethyl]ammonium dichloride], for which the inhibition at 200 µM at Arabidopsis BioDAΔMTP (setting [6]) was 96%.

Turning to `CCOC(=O)c1nn(-c2ccc3c(c2)OC(F)(F)C(F)(F)O3)c2cccc(C(C)=O)c2c1=O` [Compound A, ethyl 5-acetyl-4-oxo-1-(2,2,3,3-tetrafluoro-1,4-benzodioxin-6-yl)cinnoline-3-carboxylate], the inhibition at 1 µM in assay [1] amounted to 0%; in assay [2], 79%; in assay [3], 49%; in assay [4] it was 0%; in assay [5] it was 56%. In addition, the inhibition at 25 µM on Arabidopsis BioDAΔMTP (25 μM, Arabidopsis (SEQ ID NO 294), spermidine in substrate mix, read-out: % Inhibition relative to DMSO treatment) was found to be 96%.

With `CCn1c(-c2ccc(Cl)c(Cl)c2)c(C(=O)O)c(=O)c2cc(F)ccc21` [Compound M, 2-(3,4-dichlorophenyl)-1-ethyl-6-fluoro-4-oxo-quinoline-3-carboxylic acid], the inhibition at 0.2 µM in assay [1] was 0%; in assay [2], 24%; in assay [3], 49%; in assay [4] it was 0%; in assay [5] it was 19%. The inhibition at 1 µM was 0% in assay [1]; 57% in assay [2]; 91% in assay [3]; 4% in assay [4]; 55% in assay [5]. In addition, the inhibition at 5 µM in assay [1] came out at 0%; in assay [2], 82%; in assay [3], 99%; in assay [4], 45%; in assay [5] it was 85%. In addition, on Arabidopsis BioDAΔMTP (setting [6]), the inhibition at 0.5 µM was 45%.

In the case of `CC(O)C(N)CCCCC(=O)O.Cl` (stereo not drawn) [Compound B, [5-carboxy-1-(1-hydroxyethyl)pentyl]ammonium chloride], the inhibition at 31 µM on Arabidopsis BioDAΔMTP (setting [7]) came out at 79%. The inhibition at 200 µM on Arabidopsis BioDAΔMTP (setting [6]) was found to be 96%. For the same molecule, the inhibition at 500 µM on Arabidopsis BioDAΔMTP (setting [8]) is 96%.

In the case of `CCn1c(Cn2ccc(C(F)(F)F)n2)cc(=O)c(C(=O)O)c1-c1ccc(Cl)c(Cl)c1` [Compound L, 2-(3,4-dichlorophenyl)-1-ethyl-4-oxo-6-[[3-(trifluoromethyl)pyrazol-1-yl]methyl]pyridine-3-carboxylic acid], the inhibition at 0.01 µM in assay [4] came out at 0%; in assay [5], 31%. The results for the inhibition at 0.075 µM in assay [4] and in assay [5] were 0% and 58%, respectively. Moreover, the inhibition at 0.5 µM in assay [4] turned out to be 0%; in assay [5], 68%; on Arabidopsis BioDAΔMTP (setting [6]) it was 83%. Moreover, the inhibition at 31 µM on Arabidopsis BioDAΔMTP (setting [7]) stood at 99%. Moreover, the figures for the “% Inhibition relative to DMSO treatment” value at Arabidopsis BioDAΔMTP (31 μM) and at Arabidopsis BioDAΔMTP (500 μM) were 99% and 98%, respectively. Besides, the inhibition at 500 µM on Arabidopsis BioDAΔMTP (setting [8]) worked out at 98%.

For `CCn1c(C)c(-c2ccc(F)cc2F)c(=O)c(C(=O)O)c1-c1ccc(Cl)c(Cl)c1` [Compound C, 2-(3,4-dichlorophenyl)-5-(2,4-difluorophenyl)-1-ethyl-6-methyl-4-oxo-pyridine-3-carboxylic acid], the inhibition at 0.2 µM in assay [1] stood at 0%; in assay [2], 44%; in assay [3], 53%; in assay [4], 0%; in assay [5], 25%. Besides, the inhibition at 1 µM came out at 0% in assay [1]; 67% in assay [2]; 96% in assay [3]; 0% in assay [4]; 52% in assay [5]. Also, the inhibition at 5 µM in assay [1] is 0%; in assay [2], 90%; in assay [3], 100%; in assay [4] it was 43%; in assay [5], 81%. Also, at Arabidopsis BioDAΔMTP (setting [6]), the inhibition at 0.5 µM came out at 53%.
